In data set [1] the target is T1, mitochondrial benzodiazepine receptor (MBR) (Rattus norvegicus, UniProt P16257).
T1 construct: from tissue; host or cells: kidney of male Wistar rats (crude membrane preparation)
Description: Binding assay of mitochondrial benzodiazepine receptor (MBR), [3H]4'-chlorodiazepam (Ro5-4864), rat kidney membrane-preparation. The note with it: rat kidney membranes, [3H]4'-chlorodiazepam 0.5 nM, 0° C. for 150 minutes. The procedure:
The binding assay of central-type benzodiazepine receptor (CBR) and the preparation of receptor membrane-preparation were carried out according to the partially modified method of Braestrup, C. et al. [see; Br. J. Psychiatry, 133, 249-260 (1978)] with a minor modification; the binding assay of mitochondrial benzodiazepine receptor (MBR) and the preparation of receptor membrane-preparation were carried out according to the method of Schoemaker, H [see; J. Pharmacol. Exp. Ther., 225, 61-69 (1983)] with a minor modification.
CBR and MBR membrane-preparations were prepared from forebrain (CBR) and kidney (MBR) of male Wistar strain rats according to the following procedure, respectively.
To the forebrain of rat, 20 volumes of ice-cold 0.32 M sucrose solution to wet-weight of the tissue (1:20, wet-weight/vol) was added and homogenized, and then the homogenate was centrifuged at 900×g for 10 minutes. The supernatant was centrifuged at 11,500×g for 20 minutes, a buffer I for the binding assay (50 mM Tris-hydrochloric acid buffer, pH 7.5) was added to the resultant precipitate, and the mixture was homogenized, and then it was centrifuged at 30,000×g for 10 minutes. The resulting precipitate was washed 3 times according to the same operation, suspended in the buffer I (1 g of wet-weight of tissue/10 ml) and used as a CBR membrane-preparation for the binding assay. The CBR membrane-preparation was stored at −80° C. until use, and on the day of the assay, it was thawed and suspended in the buffer for use. On the other hand, kidney of rat was homogenized in 20 volumes of ice-cold buffer II for the binding assay to wet-weight of the tissue (1:20, wet-weight/vol) (50 mM sodium phosphate-potassium phosphate buffer solution containing 100 mM sodium chloride, pH 7.4), and then filtrated through 4 layers of gauze, and the filtrate was centrifuged at 40,000×g for 20 minutes. The resulting precipitate was suspended in the buffer II (1 g of wet-weight of tissue/50 ml) and used as a MBR membrane-preparation for the binding assay.
As a labeled ligand and a non-labeled ligand, [^3H]flunitrazepam (final concentration: 1 nM) and diazepam (final concentration: 20 μM) were used respectively, for the CBR binding assay, and [^3H]4′-chlorodiazepam (Ro5-4864, chemical name: 7-chloro-1,3-dihydro-1-methyl-5-(4-chloro-phenyl)-2H-1,4-[…]) (final concentration: 0.5 nM) and diazepam (final concentration: 50 μM) were used respectively, for the MBR binding assay. The binding assay of CBR was carried out by incubating at 0° C. for 30 minutes, while that of MBR was at 0° C. for 150 minutes.
The receptor binding assay was carried out in the following procedure. The test compound which the concentration was known, a tritium labeled ligand, a receptor membrane-preparation and the buffer I or II for the binding assay were added to a 96-well microplate in the total volume was 0.2 ml, and when the receptor membrane-preparation was added, the reaction started. After the incubation, the labeled ligand binding to the receptor was filtrated through a filter plate (UNI FILTER-96GF/B, PerkinElmer, the U.S.) using a cell harvester (PerkinElmer, the U.S.) to stop the reaction. The filter was immediately washed 6 times with 0.3 ml of the ice-cold buffer [50 mM Tris-hydrochloric acid buffer (pH 7.7)]. After 30 μl of liquid scintillation cocktail (MICROSCINTI 20, PerkinElmer, the U.S.) was added to each well on the dried filter plate, the radioactivity was measured with a TopCount. The specific binding amount was obtained by subtracting the non-specific binding amount which was simultaneously measured in the presence of non-labeled ligand from the total binding amount. The concentration that the test compound could decrease the specific binding amount of the labeled ligand to 50% of the amount (IC50 value) was analyzed using nonlinear least-squares method.

Data on 31 molecules can be found in US20080221114A1, “2-(Cyclic Aminocarbonyl) Indoline Derivative and Medicinal Composition Containing the Same” (priority 2005, published 2008).

In general, melting point refers to the temperature of the solid-liquid transition. The term IC50 denotes the midpoint of a concentration-inhibition curve. High values mean a need for much substance, low ones inhibition by little substance.

`Cn1nc(N2c3ccccc3C[C@H]2C(=O)N2CCCCCC2)ccc1=O` (hydrate or solvate) [Example 118, (S)-1-(1-methyl-6-oxo-1,6-dihydropyridazin-3-yl)-2-[(1-perhydroazepinyl)carbonyl]indoline] registered a melting point of 198 to 199 °C.

`CC1CCCN(C(=O)[C@H]2[C@@H](O)c3ccccc3N2c2ccc(=O)n(C)n2)C1` (relative stereo) [Example 159, cis-3-hydroxy-1-(1-methyl-6-oxo-1,6-dihydropyridazin-3-yl)-2-[(3-methylpiperidin-1-yl)carbonyl]-indoline] returned a 50% inhibitory concentration (IC50) in data set [1] of 61.5 nM.

On to `C[C@H]1CCCN(C(=O)C2Cc3c(F)cccc3N2c2ccc(=O)n(C)n2)C1` (single isomer, unassigned) [Example 155a], for which the IC50 in data set [1] was determined as 4.36 nM.

`C[C@H]1CCCN(C(=O)C2Cc3c(F)cccc3N2c2ccc(=O)n(C)n2)C1` (single isomer, unassigned) [Example 155b]: the IC50 in data set [1] worked out at 8.69 nM.

With `C[C@@H]1C[C@H](C)CN(C(=O)[C@@H]2Cc3ccccc3N2c2cccnc2)C1` [Example 33], the half-inhibitory concentration (IC50) in data set [1] worked out at 1.99 nM.

In data set [1], `C[C@@H]1C[C@H](C)CN(C(=O)[C@@H]2Cc3ccccc3N2c2ncccc2N)C1` [Example 55, (S)-1-(3-aminopyridin-2-yl)-2-[(cis-3,5-dimethylpiperidin-1-yl)carbonyl]indoline] displayed an IC50 of 55.1 nM.

In data set [1], `CCC(C)n1nc(N2c3ccccc3CC2C(=O)N2CCCC(C)C2)ccc1=O` (stereo not shown) [Example 76] displayed a concentration for half-maximal inhibition (IC50) of 3.04 nM. Against the preceding molecule, the IC50 is about 18-fold lower.

In turn, `CCc1ccc2c(c1)C[C@@H](C(=O)N1CCC[C@H](C)C1)N2c1cccnn1` [Example 105, (S)-5-ethyl-2-[(S)-3-methylpiperidin-1-yl]-carbonyl-1-(3-pyridazinyl)indoline] returned an IC50 in data set [1] of 80.7 nM.

For `Cn1nc(N2c3ccccc3CC2C(=O)N2CCCC(C(F)(F)F)C2)ccc1=O` (stereo not shown) [Example 108], the IC50 in data set [1] stood at 17.7 nM.

`Cn1nc(N2c3ccccc3C[C@H]2C(=O)N2CCCCCC2)ccc1=O` [Example 118, (S)-1-(1-methyl-6-oxo-1,6-dihydropyridazin-3-yl)-2-[(1-perhydroazepinyl)carbonyl]indoline] returned an IC50 in data set [1] of 4.22 nM.

`Cn1nc(N2c3ccccc3C[C@H]2C(=O)N2CCCCCCC2)ccc1=O` [Example 119, (S)-1-(1-methyl-6-oxo-1,6-dihydropyridazin-3-yl)-2-[(1-perhydroazocinyl)carbonyl]indoline] gave an IC50 in data set [1] of 3.98 nM. The IC50 values of the last two molecules are within 1.5-fold of each other.

In data set [1], `C[C@H]1CCCN(C(=O)[C@@H]2Cc3ccccc3N2c2ccc(=O)n(CC(=O)c3ccccc3)n2)C1` [Example 124] registered a 50% inhibitory concentration (IC50) of 2.39 nM.

On to `C[C@H]1CCCN(C(=O)[C@@H]2Cc3ccccc3N2c2ccc(=O)n(CC3CCC3)n2)C1` [Example 125], for which the IC50 in data set [1] turned out to be 1.33 nM.

`C[C@H]1CCCN(C(=O)[C@@H]2Cc3ccccc3N2c2ccc(=O)n(C3CCCC3)n2)C1` [Example 126]: in data set [1], the IC50 amounted to 2.69 nM.

As for `C[C@H]1CCCN(C(=O)C2Cc3cc(O)ccc3N2c2ccc(=O)n(C)n2)C1` (stereo partly drawn) [Example 136, 5-hydroxy-1-(1-methyl-6-oxo-1,6-dihydropyridazin-3-yl)-2-[[(S)-3-methylpiperidin-1-yl]carbonyl]indoline], the IC50 in data set [1] was 67 nM.

In the case of `C[C@H]1CCCN(C(=O)[C@@H]2Cc3ccccc3N2c2ccc(=S)n(C)n2)C1` [Example 139, (S)-2-[[(S)-3-methylpiperidin-1-yl]carbonyl]-1-(1-methyl-6-thioxo-1,6-dihydropyridazin-3-yl)indoline], in data set [1], the IC50 was 7.15 nM.

`CC1c2ccccc2N(c2ccc(Cl)nn2)C1C(=O)N1CCC[C@H](C)C1` (stereo partly drawn) [Example 140, 1-(6-chloropyridazin-3-yl)-3-methyl-2-[[(S)-3-methylpiperidin-1-yl]carbonyl]indoline]: the half-maximal inhibitory concentration (IC50) in data set [1] is 3.84 nM.

Molecule `CC1c2ccccc2N(c2ccc(=O)n(C)n2)C1C(=O)N1CCC[C@H](C)C1` (stereo partly drawn) [Example 141, 3-methyl-1-(1-methyl-6-oxo-1,6-dihydropyridazin-3-yl)-2-[[(S)-3-methylpiperidin-1-yl]carbonyl]indoline] came in with a 50% inhibitory concentration (IC50) in data set [1] of 12.3 nM. This IC50 is about 3.2-fold higher than that of the molecule before.

In turn, `C[C@H]1CCCN(C(=O)[C@@H]2Cc3ccccc3N2c2ccc(=O)[nH]n2)C1` [Example 143, (S)-2-[[(S)-3-methylpiperidin-1-yl]carbonyl]-1-(6-oxo-1,6-dihydropyridazin-3-yl)indoline] showed a half-maximal inhibitory concentration (IC50) in data set [1] of 8.69 nM.

As for `CC1CCCCN1C(=O)[C@@H]1Cc2ccccc2N1c1ccc(=O)n(C)n1` (stereo partly drawn) [Example 145, (S)-1-(1-methyl-6-oxo-1,6-dihydropyridazin-3-yl)-2-[(2-methylpiperidin-1-yl)carbonyl]indoline], the half-maximal inhibitory concentration (IC50) in data set [1] came to 31 nM.

In turn, `CCC1CCCN(C(=O)[C@@H]2Cc3ccccc3N2c2ccc(=O)n(C)n2)C1` (stereo partly drawn) [Example 146, (S)-2-[(3-ethylpiperidin-1-yl)carbonyl]-1-(1-methyl-6-oxo-1,6-dihydropyridazin-3-yl)indoline] showed an IC50 in data set [1] of 4.91 nM.

As to `CCCC1CCCN(C(=O)[C@@H]2Cc3ccccc3N2c2ccc(=O)n(C)n2)C1` (stereo partly drawn) [Example 147, (S)-1-(1-methyl-6-oxo-1,6-dihydropyridazin-3-yl)-2-[(3-propylpiperidin-1-yl)carbonyl]indoline], the IC50 in data set [1] was found to be 3.8 nM. The IC50 values of the last two molecules are within 1.5-fold of each other.

In turn, `CC1CCN(C(=O)[C@@H]2Cc3ccccc3N2c2ccc(=O)n(C)n2)C1` (stereo partly drawn) [Example 148, (S)-1-(1-methyl-6-oxo-1,6-dihydropyridazin-3-yl)-2-[(3-methylpyrrolidin-1-yl)carbonyl]indoline] had an IC50 in data set [1] of 44.7 nM.

Take `CCC1CCN(C(=O)[C@@H]2Cc3ccccc3N2c2ccc(=O)n(C)n2)C1` (stereo partly drawn) [Example 149, (S)-2-[(3-ethylpyrrolidin-1-yl)carbonyl]-1-(1-methyl-6-oxo-1,6-dihydropyridazin-3-yl)indoline]: the IC50 in data set [1] was 5.35 nM. This IC50 lies about 8.4-fold lower than the previous one.

`CC1CCCCN(C(=O)[C@@H]2Cc3ccccc3N2c2ccc(=O)n(C)n2)C1` (stereo partly drawn) [Example 150, (S)-1-(1-methyl-6-oxo-1,6-dihydropyridazin-3-yl)-2-[(3-methylperhydroazepin-1-yl)carbonyl]indoline] registered an IC50 in data set [1] of 5.36 nM.

`CCC1CCCCN(C(=O)[C@@H]2Cc3ccccc3N2c2ccc(=O)n(C)n2)C1` (stereo partly drawn) [Example 151, (S)-2-[(3-ethylperhydroazepin-1-yl)carbonyl]-1-(1-methyl-6-oxo-1,6-dihydropyridazin-3-yl)indoline] returned a 50% inhibitory concentration (IC50) in data set [1] of 3.59 nM.

In turn, `Cn1nc(N2c3ccccc3C[C@H]2C(=O)N2CCCC(C)(C)C2)ccc1=O` [Example 152, (S)-2-[(3,3-dimethylpiperidin-1-yl)carbonyl]-1-(1-methyl-6-oxo-1,6-dihydropyridazin-3-yl)indoline] showed an IC50 in data set [1] of 7.29 nM. Compared with the last molecule, the IC50 is about 2-fold higher.

In data set [1], `C[C@H]1CCCN(C(=O)[C@@H]2Cc3ccccc3N2c2nccs2)C1` [Example 153, (S)-2-[(S)-3-methylpiperidin-1-yl]carbonyl-1-(1,3-thiazol-2-yl)indoline] registered a 50% inhibitory concentration (IC50) of 1.13 nM.

`C[C@H]1CCCN(C(=O)[C@@H]2Cc3ccccc3N2c2ccc3nncn3n2)C1` [Example 154, (S)-2-[[(S)-3-methylpiperidin-1-yl]carbonyl]-1-(1,2,4-triazolo[4,3-b]pyridazin-6-yl)indoline] displayed an IC50 in data set [1] of 5 nM. Compared with the last molecule, the IC50 is about 4.4-fold higher.

The molecule `Cn1nc(N2c3cccc(F)c3CC2C(=O)N2CCCCCC2)ccc1=O` (stereo not shown) [Example 156, 4-fluoro-1-(1-methyl-6-oxo-1,6-dihydropyridazin-3-yl)-2-[(1-perhydroazepinyl)carbonyl]indoline] gave a 50% inhibitory concentration (IC50) in data set [1] of 2.76 nM.

On to `Cn1nc(N2c3cc(F)ccc3CC2C(=O)N2CCCCCC2)ccc1=O` (stereo not shown) [Example 158, 6-fluoro-1-(1-methyl-6-oxo-1,6-dihydropyridazin-3-yl)-2-[(1-perhydroazepinyl)carbonyl]indoline], for which the IC50 in data set [1] came out at 28.5 nM. Compared with the last molecule, the IC50 is about 10-fold higher.
